{"source": "patent US20250270172A1", "about": "“Pyrimidine Derivatives As Modulators of the 5-HT2A Serotonin Receptor Useful For The Treatment of Disorders Related Thereto” (Arena Pharmaceuticals, Inc., priority 2020, published 2025)"}
{"molecular_target": "T1, 5-HT2A (Homo sapiens (Human), UniProt P28223)", "T1 sequence (P28223 whole entry)": "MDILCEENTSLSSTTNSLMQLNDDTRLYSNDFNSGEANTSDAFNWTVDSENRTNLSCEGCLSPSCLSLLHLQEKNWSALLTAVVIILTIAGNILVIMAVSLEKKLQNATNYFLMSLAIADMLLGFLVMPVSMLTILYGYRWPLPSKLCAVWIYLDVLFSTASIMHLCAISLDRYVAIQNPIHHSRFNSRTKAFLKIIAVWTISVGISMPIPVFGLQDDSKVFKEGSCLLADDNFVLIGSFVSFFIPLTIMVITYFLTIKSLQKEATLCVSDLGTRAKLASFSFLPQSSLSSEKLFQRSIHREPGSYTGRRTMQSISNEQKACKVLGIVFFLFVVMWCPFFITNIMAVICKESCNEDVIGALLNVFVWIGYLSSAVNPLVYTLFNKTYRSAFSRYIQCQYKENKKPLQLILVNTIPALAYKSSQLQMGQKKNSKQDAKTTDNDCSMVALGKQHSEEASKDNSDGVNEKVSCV", "test": "Radioligand binding assay, [^3H]5-HT competition, 5-HT2A", "conditions": "[^3H]5-HT radioligand, membranes of HEK293 cells expressing recombinant 5-HT2A; Ki from IC50 by Cheng-Prusoff; read-out: 5-HT2A serotonin binding Ki value", "units": {"Ki": "nM"}}
{"smiles": "COc1cccc(C(=O)Nc2ccc(OCCN3CCCC3)c(-c3c(C)ncnc3C)c2)c1", "note": "[Compound 273, N-(3-(4,6-dimethylpyrimidin-5-yl)-4-(2-(pyrrolidin-1-yl)ethoxy)phenyl)-3-methoxybenzamide]", "Ki": 1.11}
{"smiles": "Cc1ncsc1C(=O)Nc1ccc(OCCN2CCC2)c(-c2c(C)ncnc2C)c1", "note": "[Compound 306, N-(4-(2-(azetidin-1-yl)ethoxy)-3-(4,6-dimethylpyrimidin-5-yl)phenyl)-4-methylthiazole-5-carboxamide]", "Ki": 2.65}
{"smiles": "Cc1ncnc(C)c1-c1cc(NC(=O)Cc2cccc(F)c2)ccc1OCCN1CCC1", "note": "[Compound 312, N-(4-(2-(azetidin-1-yl)ethoxy)-3-(4,6-dimethylpyrimidin-5-yl)phenyl)-2-(3-fluorophenyl)acetamide]", "Ki": 0.813}
{"smiles": "Cc1cnoc1C(=O)Nc1ccc(O[C@@H]2CCCNC2)c(-c2c(C)ncnc2C)c1", "note": "[Compound 414, (R)—N-(3-(4,6-dimethylpyrimidin-5-yl)-4-(piperidin-3-yloxy)phenyl)-4-methylisoxazole-5-carboxamide]", "Ki": 91}
{"smiles": "Cc1ncoc1C(=O)Nc1ccc(O[C@@H]2CCCNC2)c(-c2c(C)ncnc2C)c1", "note": "[Compound 415, (R)—N-(3-(4,6-dimethylpyrimidin-5-yl)-4-(piperidin-3-yloxy)phenyl)-4-methyloxazole-5-carboxamide]", "Ki": 101}
{"smiles": "Cc1ncnc(C)c1-c1cc(NC(=O)c2cccn2C)ccc1O[C@@H]1CCCNC1", "note": "[Compound 416, (R)—N-(3-(4,6-dimethylpyrimidin-5-yl)-4-(piperidin-3-yloxy)phenyl)-1-methyl-1H-pyrrole-2-carboxamide]", "Ki": 45.3}
{"smiles": "Cc1ncnc(C)c1-c1cc(NC(=O)c2ccnn2C)ccc1O[C@@H]1CCCNC1", "note": "[Compound 417, (R)—N-(3-(4,6-dimethylpyrimidin-5-yl)-4-(piperidin-3-yloxy)phenyl)-1-methyl-1H-pyrazole-5-carboxamide]", "Ki": 40.3}
{"smiles": "Cc1ncnc(C)c1-c1cc(NC(=O)C2CC2)ccc1O[C@@H]1CCCNC1", "note": "[Compound 418, (R)—N-(3-(4,6-dimethylpyrimidin-5-yl)-4-(piperidin-3-yloxy)phenyl)cyclopropanecarboxamide]", "Ki": 7.29}
{"smiles": "Cc1ncnc(C)c1-c1cc(NC(=O)C2CC2)ccc1O[C@H]1CCCNC1", "note": "[Compound 419, (S)—N-(3-(4,6-dimethylpyrimidin-5-yl)-4-(piperidin-3-yloxy)phenyl)cyclopropanecarboxamide]", "Ki": 443}
{"smiles": "Cc1ncnc(C)c1-c1cc(NC(=O)C2CC2)ccc1OC[C@@H]1CCCCN1", "note": "[Compound 420, N-[3-(4,6-dimethylpyrimidin-5-yl)-4-[[(2S)-2-piperidyl]methoxy]phenyl]cyclopropanecarboxamide]", "Ki": 92.7}
{"smiles": "Cc1ncnc(C)c1-c1cc(NC(=O)C2CC2)ccc1OC[C@H]1CCCCN1", "note": "[Compound 421]", "Ki": 9.41}
{"smiles": "Cc1ncnc(C)c1-c1cc(NC(=O)[C@@H]2C[C@H]2F)ccc1OC[C@H]1CCCCN1", "note": "[Compound 422, (1S,2R)—N-[3-(4,6-dimethylpyrimidin-5-yl)-4-[[(2R)-2-piperidyl]methoxy]phenyl]-2-fluoro-cyclopropanecarboxamide]", "Ki": 4.58}
{"smiles": "Cc1ncnc(C)c1-c1cc(NC(=O)[C@H]2C[C@H]2F)ccc1OC[C@H]1CCCCN1", "note": "[Compound 423, (1R,2R)—N-(3-(4,6-dimethylpyrimidin-5-yl)-4-(((R)-piperidin-2-yl)methoxy)phenyl)-2-fluorocyclopropane-1-carboxamide]", "Ki": 16.2}
{"smiles": "Cc1ncnc(C)c1-c1cc(NC(=O)[C@@H]2C[C@@H]2F)ccc1OC[C@H]1CCCCN1", "note": "[Compound 424, (1S,2S)—N-(3-(4,6-dimethylpyrimidin-5-yl)-4-(((R)-piperidin-2-yl)methoxy)phenyl)-2-fluorocyclopropane-1-carboxamide]", "Ki": 12.5}
{"smiles": "Cc1ncsc1C(=O)Nc1ccc(OC[C@H]2CCCCN2)c(-c2c(C)ncnc2C)c1", "note": "[Compound 425, (R)—N-(3-(4,6-dimethylpyrimidin-5-yl)-4-(piperidin-2-ylmethoxy)phenyl)-4-methylthiazole-5-carboxamide]", "Ki": 43.8}
{"smiles": "Cc1nc(C)c(C(=O)Nc2ccc(OC[C@H]3CCCCN3)c(-c3c(C)ncnc3C)c2)s1", "note": "[Compound 426, (R)—N-(3-(4,6-dimethylpyrimidin-5-yl)-4-(piperidin-2-ylmethoxy)phenyl)-2,4-dimethylthiazole-5-carboxamide]", "Ki": 87.2}
{"smiles": "Cc1cnoc1C(=O)Nc1ccc(OC[C@H]2CCCCN2)c(-c2c(C)ncnc2C)c1", "note": "[Compound 427, (R)—N-(3-(4,6-dimethylpyrimidin-5-yl)-4-(piperidin-2-ylmethoxy)phenyl)-4-methylisoxazole-5-carboxamide]", "Ki": 27.2}
{"smiles": "Cc1ncoc1C(=O)Nc1ccc(OC[C@H]2CCCCN2)c(-c2c(C)ncnc2C)c1", "note": "[Compound 428, (R)—N-(3-(4,6-dimethylpyrimidin-5-yl)-4-(piperidin-2-ylmethoxy)phenyl)-4-methyloxazole-5-carboxamide]", "Ki": 35.3}
{"smiles": "Cc1ncnc(C)c1-c1cc(NC(=O)c2cnoc2)ccc1OC[C@H]1CCCCN1", "note": "[Compound 429, (R)—N-(3-(4,6-dimethylpyrimidin-5-yl)-4-(piperidin-2-ylmethoxy)phenyl)isoxazole-4-carboxamide]", "Ki": 131}
{"smiles": "Cc1nocc1C(=O)Nc1ccc(OC[C@H]2CCCCN2)c(-c2c(C)ncnc2C)c1", "note": "[Compound 430, (R)—N-(3-(4,6-dimethylpyrimidin-5-yl)-4-(piperidin-2-ylmethoxy)phenyl)-3-methylisoxazole-4-carboxamide]", "Ki": 21.6}
{"smiles": "Cc1ncnc(C)c1-c1cc(NC(=O)c2cnoc2C)ccc1OC[C@H]1CCCCN1", "note": "[Compound 431, (R)—N-(3-(4,6-dimethylpyrimidin-5-yl)-4-(piperidin-2-ylmethoxy)phenyl)-5-methylisoxazole-4-carboxamide]", "Ki": 54.9}
{"smiles": "Cc1ncnc(C)c1-c1cc(NC(=O)c2ncoc2C)ccc1OC[C@H]1CCCCN1", "note": "[Compound 432, (R)—N-(3-(4,6-dimethylpyrimidin-5-yl)-4-(piperidin-2-ylmethoxy)phenyl)-5-methyloxazole-4-carboxamide]", "Ki": 19.1}
{"smiles": "Cc1ncnc(C)c1-c1cc(NC(=O)c2cnsc2)ccc1OC[C@H]1CCCCN1", "note": "[Compound 433, (R)—N-(3-(4,6-dimethylpyrimidin-5-yl)-4-(piperidin-2-ylmethoxy)phenyl) isothiazole-4-carboxamide]", "Ki": 9.98}
{"smiles": "Cc1nscc1C(=O)Nc1ccc(OC[C@H]2CCCCN2)c(-c2c(C)ncnc2C)c1", "note": "[Compound 434, (R)—N-(3-(4,6-dimethylpyrimidin-5-yl)-4-(piperidin-2-ylmethoxy)phenyl)-3-methylisothiazole-4-carboxamide]", "Ki": 19.3}
{"smiles": "Cc1ncnc(C)c1-c1cc(NC(=O)c2ccnn2C)ccc1OC[C@H]1CCCCN1", "note": "[Compound 437, N-[3-(4,6-dimethylpyrimidin-5-yl)-4-[[(2R)-2-piperidyl]methoxy]phenyl]-2-methyl-pyrazole-3-carboxamide]", "Ki": 10.7}
{"smiles": "COC1(C(=O)Nc2ccc(OC[C@H]3CCCCN3)c(-c3c(C)ncnc3C)c2)CC1", "note": "[Compound 439, (R)—N-(3-(4,6-dimethylpyrimidin-5-yl)-4-(piperidin-2-ylmethoxy)phenyl)-1-methoxycyclopropane-1-carboxamide]", "Ki": 14.6}
{"smiles": "Cc1ncnc(C)c1-c1cc(NC(=O)C2(O)CC2)ccc1OC[C@H]1CCCCN1", "note": "[Compound 440, (R)—N-(3-(4,6-dimethylpyrimidin-5-yl)-4-(piperidin-2-ylmethoxy)phenyl)-1-hydroxycyclopropane-1-carboxamide]", "Ki": 65.1}
{"smiles": "Cc1ncnc(C)c1-c1cc(NC(=O)[C@H](F)C(C)C)ccc1OC[C@H]1CCCCN1", "note": "[Compound 442, (R)—N-(3-(4,6-dimethylpyrimidin-5-yl)-4-(((R)-piperidin-2-yl)methoxy)phenyl)-2-fluoro-3-methylbutanamide]", "Ki": 17.1}
{"smiles": "Cc1ncnc(C)c1-c1cc(NC(=O)[C@@H](F)C(C)C)ccc1OC[C@H]1CCCCN1", "note": "[Compound 443, (S)—N-(3-(4,6-dimethylpyrimidin-5-yl)-4-(((R)-piperidin-2-yl)methoxy)phenyl)-2-fluoro-3-methylbutanamide]", "Ki": 18.8}
{"smiles": "Cc1ncnc(C)c1-c1cc(NC(=O)C2(F)CCOCC2)ccc1OC[C@H]1CCCCN1", "note": "[Compound 445, (R)—N-(3-(4,6-dimethylpyrimidin-5-yl)-4-(piperidin-2-ylmethoxy)phenyl)-4-fluorotetrahydro-2H-pyran-4-carboxamide]", "Ki": 63.3}
{"smiles": "Cc1ncnc(C)c1-c1cc(NC(=O)c2ccccc2)ccc1OC[C@H]1CCCCN1", "note": "[Compound 448, (R)—N-(3-(4,6-dimethylpyrimidin-5-yl)-4-(piperidin-2-ylmethoxy)phenyl)benzamide]", "Ki": 1.7}
{"smiles": "Cc1ncnc(C)c1-c1cc(NC(=O)c2cccc(F)c2)ccc1OC[C@H]1CCCCN1", "note": "[Compound 449, (R)—N-(3-(4,6-dimethylpyrimidin-5-yl)-4-(piperidin-2-ylmethoxy)phenyl)-3-fluorobenzamide]", "Ki": 6.49}
{"smiles": "COc1cccc(C(=O)Nc2ccc(OC[C@H]3CCCCN3)c(-c3c(C)ncnc3C)c2)c1", "note": "[Compound 450, (R)—N-(3-(4,6-dimethylpyrimidin-5-yl)-4-(piperidin-2-ylmethoxy)phenyl)-3-methoxybenzamide]", "Ki": 1.03}
{"smiles": "CC(=N)NCCOc1ccc(NC(=O)C2CC2)cc1-c1c(C)ncnc1C", "note": "[Compound 451, N-(4-(2-acetimidamidoethoxy)-3-(4,6-dimethylpyrimidin-5-yl)phenyl)cyclopropanecarboxamide]", "Ki": 52.6}
{"smiles": "Cc1ncnc(C)c1-c1cc(NC(=O)C2(F)CC2)ccc1O[C@@H]1CCCNC1", "note": "[Compound 452, (R)—N-(3-(4,6-dimethylpyrimidin-5-yl)-4-(piperidin-3-yloxy)phenyl)-1-fluorocyclopropane-1-carboxamide]", "Ki": 15}
{"molecular_target": "T1, 5-HT2A", "test": "HTRF IP-One antagonist assay, 5-HT2A;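 note: clonal line with low receptor density (about 50–70 fmol/mg), 10-point dose-response from 10 µM in 5-fold steps, HTRF detection after 1 hr, triplicate points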", "format": "cell-based", "conditions": "HEK293 cells stably expressing receptor, inositol phosphate accumulation, 80 nM 5-HT in Assay Buffer", "units": {"IC50": "nM"}}
{"smiles": "COc1cccc(C(=O)Nc2ccc(OCCN3CCCC3)c(-c3c(C)ncnc3C)c2)c1", "note": "[Compound 273, N-(3-(4,6-dimethylpyrimidin-5-yl)-4-(2-(pyrrolidin-1-yl)ethoxy)phenyl)-3-methoxybenzamide]", "IC50": 1.68}
{"smiles": "Cc1ncsc1C(=O)Nc1ccc(OCCN2CCC2)c(-c2c(C)ncnc2C)c1", "note": "[Compound 306, N-(4-(2-(azetidin-1-yl)ethoxy)-3-(4,6-dimethylpyrimidin-5-yl)phenyl)-4-methylthiazole-5-carboxamide]", "IC50": 6.14}
{"smiles": "Cc1ncnc(C)c1-c1cc(NC(=O)Cc2cccc(F)c2)ccc1OCCN1CCC1", "note": "[Compound 312, N-(4-(2-(azetidin-1-yl)ethoxy)-3-(4,6-dimethylpyrimidin-5-yl)phenyl)-2-(3-fluorophenyl)acetamide]", "IC50": 2.38}
{"molecular_target": "5-HT2C (Homo sapiens (Human), UniProt P28335)", "sequence (P28335 33-458)": "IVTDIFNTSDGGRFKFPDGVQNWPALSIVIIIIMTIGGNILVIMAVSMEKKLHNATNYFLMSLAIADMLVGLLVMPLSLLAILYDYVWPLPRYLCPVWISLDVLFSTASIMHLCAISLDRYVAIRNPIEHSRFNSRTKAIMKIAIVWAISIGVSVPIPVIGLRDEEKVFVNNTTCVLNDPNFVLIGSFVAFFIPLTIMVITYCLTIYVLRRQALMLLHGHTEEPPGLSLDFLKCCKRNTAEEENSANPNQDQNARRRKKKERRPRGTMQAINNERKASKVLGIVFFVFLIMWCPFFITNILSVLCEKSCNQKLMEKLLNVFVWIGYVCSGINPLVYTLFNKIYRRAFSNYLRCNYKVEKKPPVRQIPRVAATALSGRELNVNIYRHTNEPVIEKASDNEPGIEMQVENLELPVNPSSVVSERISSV", "test": "HTRF IP-One antagonist assay, 5-HT2C;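 note: clonal HEK293 line with low 5-HT2C density (10–20 fmol/mg), HTRF detection of IP-One, 10-point dose curves from 10 µM in 5-fold steps, triplicate points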", "format": "cell-based", "conditions": "HEK293 cells stably expressing receptor, inositol phosphate accumulation, 80 nM 5-HT in Assay Buffer", "units": {"IC50": "nM"}}
{"smiles": "COc1cccc(C(=O)Nc2ccc(OCCN3CCCC3)c(-c3c(C)ncnc3C)c2)c1", "note": "[Compound 273, N-(3-(4,6-dimethylpyrimidin-5-yl)-4-(2-(pyrrolidin-1-yl)ethoxy)phenyl)-3-methoxybenzamide]", "IC50": 100000}
{"smiles": "Cc1ncsc1C(=O)Nc1ccc(OCCN2CCC2)c(-c2c(C)ncnc2C)c1", "note": "[Compound 306, N-(4-(2-(azetidin-1-yl)ethoxy)-3-(4,6-dimethylpyrimidin-5-yl)phenyl)-4-methylthiazole-5-carboxamide]", "IC50": 100000}
{"smiles": "Cc1ncnc(C)c1-c1cc(NC(=O)Cc2cccc(F)c2)ccc1OCCN1CCC1", "note": "[Compound 312, N-(4-(2-(azetidin-1-yl)ethoxy)-3-(4,6-dimethylpyrimidin-5-yl)phenyl)-2-(3-fluorophenyl)acetamide]", "IC50": 100000}
